Results: PubChem BioAssay AID1259408 (Genetic Toxicology Data Bank (GENE-TOX), 2018)
Activity calls are given as the source filed them. The rule behind the calls is not given here.

Tested on: GENE-TOX genotoxicity assays, various organisms and cells
Assay: GENE-TOX mutagenicity studies
[1] = Species/Cell Type: Drosophila melanogaster, Assay Type: Sex-linked recessive lethal gene mutation, Assay Code: SRLT, Evaluation Type: Evaluation A (Pre-1980)
[2] = Species/Cell Type: Syrian hamster embryo (SHE) cells, Assay Type: Cell transformation, clonal assay, Assay Code: CTC+, Evaluation Type: Evaluation A (Pre-1980)

CC(=O)Nc1ccccc1
mutagenic call (Species/Cell Type: Human, Assay Type: Sister-chromatid exchange (SCE) in vitro, Assay Code: SC1T, Evaluation Type: Evaluation B (Post-1980)): no conclusion
mutagenic call (Species/Cell Type: Salmonella typhimurium (one or more of the five standard strains: TA98, TA100, TA1535, TA1537, and TA1538), Assay Type: Histidine reverse gene mutation, Ames assay, Assay Code: SALT, Evaluation Type: Evaluation A (Pre-1980)): no conclusion
mutagenic call (Species/Cell Type: Salmonella typhimurium, Assay Type: Forward and reverse gene mutation, host-mediated assay, Assay Code: HMA-, Evaluation Type: Evaluation A (Pre-1980)): inactive; negative

C[C@]12C=CC(=O)C=C1CC[C@@H]1[C@@H]2[C@@H](O)C[C@@]2(C)[C@H]1CC[C@]2(O)C(=O)CO
mutagenic call (Species/Cell Type: Human lymphocytes, Assay Type: Sister-chromatid exchange (SCE) in vivo, Assay Code: SCY+, Evaluation Type: Evaluation B (Post-1980)): active; positive
mutagenic call (Species/Cell Type: Human, Sex: Male, Assay Type: Sperm morphology, Assay Code: SPH+, Evaluation Type: Evaluation A (Pre-1980)): active; positive

OC1c2ccccc2-c2cc3ccccc3cc2C1O (stereo not drawn)
mutagenic call (Species/Cell Type: Chinese hamster lung (V79) cells, Assay Type: Forward gene mutation at the HPRT or ouabain locus, Assay Code: V79-*, Activation: With metabolic activation, Evaluation Type: Evaluation A (Pre-1980)): inactive; negative
mutagenic call (Species/Cell Type: Chinese hamster lung (V79) cells, Assay Type: Forward gene mutation at the HPRT or ouabain locus, Assay Code: V79-, Evaluation Type: Evaluation A (Pre-1980)): inactive; negative
mutagenic call [1]: no conclusion
mutagenic call (Species/Cell Type: Human diploid fibroblasts, Assay Type: Unscheduled DNA synthesis (UDS) in vitro, DNA effects, Assay Code: UDH-, Evaluation Type: Evaluation A (Pre-1980)): inactive; negative
mutagenic call (Species/Cell Type: Mouse prostate cells, Assay Type: Cell transformation, Assay Code: CTM-, Evaluation Type: Evaluation A (Pre-1980)): inactive; negative
mutagenic call [2]: active; positive

Nc1ccn([C@@H]2O[C@H](CO)[C@@H](O)C2O)c(=O)n1 (stereo partly drawn)
mutagenic call (Species/Cell Type: Chinese hamster lung (V79) cells, Assay Type: Forward gene mutation at the HPRT or ouabain locus, Assay Code: V79+, Evaluation Type: Evaluation A (Pre-1980)): active; positive
mutagenic call [1]: no conclusion
mutagenic call (Species/Cell Type: Ehrlich ascites tumor (mouse) cells, Assay Type: Chromosome aberrations, DNA effects, host-mediated assay, Assay Code: HMH+, Evaluation Type: Evaluation A (Pre-1980)): active; positive
mutagenic call (Species/Cell Type: Glycine max (soybean), Assay Type: Gene mutation, Assay Code: GLM-, Evaluation Type: Evaluation A (Pre-1980)): inactive; negative
mutagenic call (Species/Cell Type: Human lymphocytes or leukocytes, Assay Type: Chromosome aberrations in vitro, Assay Code: CY7+, Evaluation Type: Evaluation A (Pre-1980)): active; positive
mutagenic call (Species/Cell Type: Human lymphocytes, Assay Type: Sister-chromatid exchange (SCE) in vitro, Assay Code: SCL+, Evaluation Type: Evaluation B (Post-1980)): active; positive
mutagenic call (Species/Cell Type: Human lymphocytes, Assay Type: Sister-chromatid exchange (SCE) in vitro, Assay Code: SCLT, Evaluation Type: Evaluation A (Pre-1980)): no conclusion
mutagenic call (Species/Cell Type: Human, Assay Type: Sister-chromatid exchange (SCE) in vitro, Assay Code: SC1+D, Dose Response: With dose response, Evaluation Type: Evaluation B (Post-1980)): active; positive
mutagenic call (Species/Cell Type: Human, Assay Type: Sister-chromatid exchange (SCE) in vitro, Assay Code: SC1T, Evaluation Type: Evaluation A (Pre-1980)): no conclusion
mutagenic call (Species/Cell Type: Mammalian polychromatic erythrocytes, Assay Type: Micronucleus test, chromosome aberrations, Assay Code: MNT+, Evaluation Type: Evaluation B (Post-1980)): active; positive
mutagenic call (Species/Cell Type: Mouse (C3H/10T1/2) cells, Assay Type: Cell transformation, Assay Code: CTH+, Evaluation Type: Evaluation A (Pre-1980)): active; positive
mutagenic call (Species/Cell Type: Nonhuman, Assay Type: Sister-chromatid exchange (SCE) in vitro, Assay Code: SC2+D, Dose Response: With dose response, Evaluation Type: Evaluation B (Post-1980)): active; positive
mutagenic call (Species/Cell Type: Nonhuman, Assay Type: Sister-chromatid exchange (SCE) in vivo, Assay Code: SC3T, Evaluation Type: Evaluation A (Pre-1980)): no conclusion
mutagenic call (Species/Cell Type: Syrian hamster embryo (SA7/SHE) cells, Assay Type: Cell transformation, viral enhanced, Assay Code: CT7+, Evaluation Type: Evaluation A (Pre-1980)): active; positive
mutagenic call [2]: active; positive

Cc1cc(N=Nc2ccc(C)c(N=Nc3cc(C)c(N)cc3N)c2)c(N)cc1N
mutagenic call (Species/Cell Type: Bacillus subtilis (H17 vs M45), Assay Type: Rec-assay, spot test, DNA effects (bacterial DNA repair), Assay Code: REW-, Evaluation Type: Evaluation A (Pre-1980)): inactive; negative

COC1OC[C@@H](C(C)=O)[C@H]1C (stereo partly drawn)
mutagenic call (Species/Cell Type: Nonhuman, Assay Type: Sister-chromatid exchange (SCE) in vitro, Assay Code: SC2T, Evaluation Type: Evaluation B (Post-1980)): no conclusion
